Data as given in US4362743A, “Antibacterial monic acid esters” (Beecham Group Limited, priority 1980, dated 1982).
Converted amounts (≈) assume the structure as drawn. Like-named read-outs stand apart in the source and are kept apart here.

Legend:
[1] = system: M. suipneumoniae LABER; experiment: Anti-mycoplasmal activity in vitro MIC; format: cell-based; details: Mesomycoplasma hyopneumoniae, 144 h
[2] = system: M. hyorhinis ATCC 25021; experiment: Anti-mycoplasmal activity in vitro MIC; format: cell-based; details: Mesomycoplasma hyorhinis, ATCC25021, 144 h
[3] = system: Bord. brochiasetpica B09; experiment: Veterinary bacteria MIC; format: cell-based; details: Diagnostic Sensitivity Test Agar, 18 hours 37° C.
Experimental: (§1) The values were determined using a two fold serial dilutions in Diagnostic Sensitivity Test Agar with an inoculum of 10^4 organisms and incubation for 18 hours at 37° C.

[4] = system: Strep. suis (Group D) SPS11; experiment: Veterinary bacteria MIC; format: cell-based; details: Streptococcus suis
Experimental: as §1

[5] = system: Past. multocida PA1; experiment: Veterinary bacteria MIC; format: cell-based; details: Pasteurella multocida, Diagnostic Sensitivity Test Agar, 18 hours 37° C.
Experimental: as §1

[6] = system: Strep. agalactiae SPA1; experiment: Veterinary bacteria MIC; format: cell-based; details: Streptococcus agalactiae, Diagnostic Sensitivity Test Agar, 18 hours 37° C.
Experimental: as §1

[7] = system: S. dublin S7; experiment: Veterinary bacteria MIC; format: cell-based; details: Salmonella enterica
Experimental: as §1

[8] = system: Erysipelothrix rhusiopathiae NCTC 8163; experiment: Veterinary bacteria MIC; format: cell-based; details: Erysipelothrix rhusiopathiae, NCTC8163, 18 h
Experimental: as §1

[9] = system: Staph. aureus 152 (pen. sens); experiment: Veterinary bacteria MIC; format: cell-based; details: Staphylococcus aureus, Diagnostic Sensitivity Test Agar, 18 hours 37° C.
Experimental: as §1

[10] = system: Bord. bronchiseptica B08; experiment: Veterinary bacteria MIC; format: cell-based; details: Bordetella bronchiseptica
Experimental: as §1

[11] = system: Past. haemolytica PA5; experiment: Veterinary bacteria MIC; format: cell-based; details: Mannheimia haemolytica; Past. haemolytica PA5; Diagnostic Sensitivity Test Agar, 18 hours 37° C.; read-out: M.I.C.
Experimental: as §1

[12] = system: E. coli NCTC 10418; experiment: Veterinary bacteria MIC; format: cell-based; details: Escherichia coli
Experimental: as §1

[13] = system: Strep. uberis SPU1; experiment: Veterinary bacteria MIC; format: cell-based; details: Streptococcus uberis, Diagnostic Sensitivity Test Agar, 18 hours 37° C.
Experimental: as §1

[14] = system: Staph. aureus Oxford; experiment: Veterinary bacteria MIC; format: cell-based; details: Staphylococcus aureus, Diagnostic Sensitivity Test Agar, 18 hours 37° C.
Experimental: as §1

[15] = system: E. coli El; experiment: Veterinary bacteria MIC; format: cell-based; details: Escherichia coli
Experimental: as §1

[16] = system: S. typhimurium S18; experiment: Veterinary bacteria MIC; format: cell-based; details: Salmonella enterica
Experimental: as §1

[17] = system: Past. multocida PA2; experiment: Veterinary bacteria MIC; format: cell-based; details: Pasteurella multocida; Past. multocida PA2; Diagnostic Sensitivity Test Agar, 18 hours 37° C.; read-out: M.I.C.
Experimental: as §1

[18] = system: Corynebacterium pyogenes CY1; experiment: Veterinary bacteria MIC; format: cell-based; details: Trueperella pyogenes
Experimental: as §1

[19] = system: Staph. aureus B4 (pen. resistant); experiment: Veterinary bacteria MIC; format: cell-based; details: Staphylococcus aureus, Diagnostic Sensitivity Test Agar, 18 hours 37° C.
Experimental: as §1

[20] = system: Strep. dysgalactiae SPD1; experiment: Veterinary bacteria MIC; format: cell-based; details: Streptococcus dysgalactiae, Diagnostic Sensitivity Test Agar, 18 hours 37° C.
Experimental: as §1

[21] = system: M. pneumoniae ATCC 15492; experiment: Anti-mycoplasmal activity in vitro MIC; format: cell-based; details: Mycoplasmoides pneumoniae, ATCC15492, 144 h
[22] = system: M. dispar NCTC 10125; experiment: Anti-mycoplasmal activity in vitro MIC; format: cell-based; details: 144 h
[23] = system: M. suipneumoniae NB12; experiment: Anti-mycoplasmal activity in vitro MIC; format: cell-based; details: Mesomycoplasma hyopneumoniae
[24] = system: M. bovis NCTC 10131; experiment: microbe, parasite or virus in culture; format: cell-based; details: NCTC10131, 144 h
[25] = system: M. bovigenitalium ATCC 14173; experiment: Anti-mycoplasmal activity in vitro MIC; format: cell-based; details: 144 h
[26] = system: M. suipneumoniae MS16; experiment: Anti-mycoplasmal activity in vitro MIC; format: cell-based; details: Mesomycoplasma hyopneumoniae, MS16, 144 h
[27] = system: Sarcina lutea 8340; experiment: Human bacteria MIC; format: cell-based
Experimental: The values were determined by serial dilutions in nutrient agar with 5% chocolated horse blood after incubations for 18 hours at 37° C.

[28] = system: M. gallisepticum S6; experiment: Anti-mycoplasmal activity in vitro MIC; format: cell-based; details: Mycoplasmoides gallisepticum
[29] = system: M. suipneumoniae HK (2); experiment: Anti-mycoplasmal activity in vitro MIC; format: cell-based; details: Mesomycoplasma hyopneumoniae, 144 h
[30] = system: M. suipneumoniae UCD 1; experiment: Anti-mycoplasmal activity in vitro MIC; format: cell-based; details: Mesomycoplasma hyopneumoniae, UCD1, 144 h
[31] = Serum binding by ultrafiltration; format: in vitro ADME; details: pig, porcine serum, 8 mcg/ml, read-out: % bound to pig serum (converted)
Experimental: Serum binding was assessed by ultrafiltration of porcine serum containing compounds at 8 mcg/ml, and through an Amicon CF50A ultrafiltration cone. Separation of ultrafiltrate was achieved by centrifugation. Unbound concentrations of compound were measured in the ultrafiltrate by microbiological assay (B. subtilis ATCC 6633) against standards prepared in saline.

Compound	MIC [2] [µg/mL]	MIC [3] [µg/mL]	MIC [5] [µg/mL]	MIC [6] [µg/mL]	MIC [8] [µg/mL]	MIC [9] [µg/mL]	MIC [11] [µg/mL]	MIC [13] [µg/mL]	MIC [14] [µg/mL]	MIC [17] [µg/mL]	MIC [19] [µg/mL]	MIC [20] [µg/mL]	MIC [21] [µg/mL]	MIC [22] [µg/mL]	MIC [24] [µg/mL]	MIC [26] [µg/mL]	MIC [30] [µg/mL]	fraction unbound [31]	further results
CON=C(CCCOC(=O)/C=C(\C)C[C@@H]1OC[C@H](C[C@@H]2O[C@H]2[C@@H](C)[C@H](C)O)[C@@H](O)[C@H]1O)c1ccccc1 [Example 5, 4-Methoxyimino-4-phenylbutyl monate A]	0.25 (≈ 0.481 µM)	40 (≈ 77 µM)	20 (≈ 38.5 µM)	1.25 (≈ 2.41 µM)	40 (≈ 77 µM)	0.625 (≈ 1.2 µM)	80 (≈ 154 µM)	0.625 (≈ 1.2 µM)	0.625 (≈ 1.2 µM)	0.039 (≈ 0.0751 µM)	0.625 (≈ 1.2 µM)	1.25 (≈ 2.41 µM)	2.5 (≈ 4.81 µM)	0.1 (≈ 0.192 µM)	0.025 (≈ 0.0481 µM)	0.25 (≈ 0.481 µM)	0.25 (≈ 0.481 µM)	< 0.068	MIC [1]: 0.25 µg/mL (≈ 0.481 µM); MIC ([4]; Strep. suis (Group D) SPS11, Diagnostic Sensitivity Test Agar, 18 hours 37° C., read-out: M.I.C.): 20 µg/mL (≈ 38.5 µM); MIC ([7]; S. dublin S7, Diagnostic Sensitivity Test Agar, 18 hours 37° C., read-out: M.I.C.): > 80 µg/mL; MIC ([10]; Bord. bronchiseptica B08, Diagnostic Sensitivity Test Agar, 18 hours 37° C., read-out: M.I.C.): > 80 µg/mL; MIC ([12]; NCTC10418, E. coli NCTC 10418, Diagnostic Sensitivity Test Agar, 18 hours 37° C., read-out: M.I.C.): > 80 µg/mL; MIC ([15]; E. coli El, Diagnostic Sensitivity Test Agar, 18 hours 37° C., read-out: M.I.C.): > 80 µg/mL; MIC ([16]; S. typhimurium S18, Diagnostic Sensitivity Test Agar, 18 hours 37° C., read-out: M.I.C.): > 80 µg/mL; MIC ([18]; Corynebacterium pyogenes CY1, Diagnostic Sensitivity Test Agar, 18 hours 37° C., read-out: M.I.C.): > 80 µg/mL; MIC ([23]; NB12, 144 h): 0.25 µg/mL (≈ 0.481 µM); MIC ([25]; M. bovigenitalium ATCC 14173, Friis broth, 0.9% agarose, 6 days 37° C., read-out: M.I.C.): 0.05 µg/mL (≈ 0.0962 µM); MIC ([27]; Micrococcus luteus, Sarcina lutea 8340, nutrient agar, 5% chocolated horse blood, 18 hours 37° C., read-out: M.I.C.): > 100 µg/mL; MIC ([28]; 144 h, M. gallisepticum S6, Friis broth, 0.9% agarose, 6 days 37° C., read-out: M.I.C.): 10 µg/mL (≈ 19.2 µM); MIC ([29]; M. suipneumoniae HK (2), Friis broth, 0.9% agarose, 6 days 37° C., read-out: M.I.C.): 0.5 µg/mL (≈ 0.962 µM)
C/C(=C\C(=O)OCCCCCC=NN(C)C)C[C@@H]1OC[C@H](C[C@@H]2O[C@H]2[C@@H](C)[C@H](C)O)[C@@H](O)[C@H]1O [Example 6, 6-Dimethylhydrazonohexyl monate A]	0.25 (≈ 0.516 µM)	2.5 (≈ 5.16 µM)	2.5 (≈ 5.16 µM)	1.25 (≈ 2.58 µM)	80 (≈ 165 µM)	0.07 (≈ 0.144 µM)	10 (≈ 20.6 µM)	0.312 (≈ 0.644 µM)	0.07 (≈ 0.144 µM)	0.312 (≈ 0.644 µM)	0.07 (≈ 0.144 µM)	0.07 (≈ 0.144 µM)	2.5 (≈ 5.16 µM)	0.25 (≈ 0.516 µM)	≤ 0.01	0.25 (≈ 0.516 µM)	1 (≈ 2.06 µM)	0.239	MIC ([1]; M. suipneumoniae LABER, Friis broth, 0.9% agarose, 6 days 37° C., read-out: M.I.C.): 0.5 µg/mL (≈ 1.03 µM); MIC ([4]; 18 h): 20 µg/mL (≈ 41.3 µM); MIC ([7]; S7, 18 h): > 80 µg/mL; MIC ([10]; B08, 18 h): 5 µg/mL (≈ 10.3 µM); MIC ([12]; NCTC10418, 18 h): > 80 µg/mL; MIC ([15]; 18 h): > 80 µg/mL; MIC ([16]; TYPHIMURIUM, 18 h): > 80 µg/mL; MIC ([18]; CY1, 18 h): > 80 µg/mL; MIC ([23]; 144 h, M. suipneumoniae NB12, Friis broth, 0.9% agarose, 6 days 37° C., read-out: M.I.C.): 0.5 µg/mL (≈ 1.03 µM); MIC [25]: 0.025 µg/mL (≈ 0.0516 µM); MIC ([27]; Micrococcus luteus, 8340, 18 h): > 100 µg/mL; MIC ([28]; S6, 144 h): 5 µg/mL (≈ 10.3 µM); MIC [29]: 1 µg/mL (≈ 2.06 µM)
